{"source": "patent US10414740B2", "about": "“Glutaminase inhibitors and method of use” (Agios Pharmaceuticals, Inc., priority 2012, dated 2019)", "note": "pIC50: −log10 of the molar value."}
{"target": "T1, glutaminase (GAC) (Homo sapiens, UniProt O94925)", "T1 sequence (O94925 55-598 isoform O94925-3 limits assumed)": "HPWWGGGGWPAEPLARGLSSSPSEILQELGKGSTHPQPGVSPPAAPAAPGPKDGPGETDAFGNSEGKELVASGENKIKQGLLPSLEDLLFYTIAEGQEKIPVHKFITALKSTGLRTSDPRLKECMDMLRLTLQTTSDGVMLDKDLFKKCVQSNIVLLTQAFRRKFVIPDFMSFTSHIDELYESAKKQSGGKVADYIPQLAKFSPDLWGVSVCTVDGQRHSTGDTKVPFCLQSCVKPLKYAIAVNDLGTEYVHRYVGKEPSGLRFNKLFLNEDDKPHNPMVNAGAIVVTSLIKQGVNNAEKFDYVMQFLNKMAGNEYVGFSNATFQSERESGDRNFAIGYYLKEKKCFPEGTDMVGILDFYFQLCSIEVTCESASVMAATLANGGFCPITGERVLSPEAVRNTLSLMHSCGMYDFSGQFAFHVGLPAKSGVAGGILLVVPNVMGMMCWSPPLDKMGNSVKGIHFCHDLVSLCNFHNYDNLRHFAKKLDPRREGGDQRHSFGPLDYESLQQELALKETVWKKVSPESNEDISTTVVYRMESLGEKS", "test": "glutaminase coupled endpoint assay (Example A)", "type": "biochemical", "conditions": "inhibition of glutaminase; IC50 tested in an assay of Example A or Example B", "protocol": "In this example, the enzymatic activity of glutaminase is measured through a coupled endpoint assay. […] The glutamate produced is converted to 2-OG by a kinetic excess of glutamate dehydrogenase. […] However, a kinetic excess of the third coupling enzyme, diaphorase, recycles NAD from NADH to keep the NAD concentration constant during the timecourse of the assay. Diaphorase, also supplied in kinetic excess, oxidizes NADH produced by GDH back to NAD with the concomitant reduction of rezasurin to the highly fluorescent resorufin. […] A reduction in the signal indicates inhibition of some component of the coupled enzyme system. Prospective hits are counterscreened against GDH/diaphorase alone to remove hits to the coupling enzyme system in a second assay.\n2. […] Add 1 μl a compound in 100% DMSO 2. Add 40 μl of Enzyme Mix and incubate for 60 minute at room temperature 3. Add 10 μl of Substrate Mix to start reaction 4."}
{"molecule": "CCOC(=O)CCCC(=O)Nc1nnc(CCCCc2nnc(NC(=O)CCCC(=O)OCC)s2)s1", "note": "[Compound 76, Diethyl 5,5′-(5,5′-(butane-1,4-diyl)bis(1,3,4-thiadiazole-5,2-diyl))bis(azanediyl)bis(5-oxopentanoate)]", "pIC50": "6.30 to 7.00"}
{"molecule": "CC(C)COC(=O)Nc1nnc(CCS(=O)(=O)CCc2nnc(NC(=O)OCC(C)C)s2)s1", "note": "[Compound 22, Diisobutyl (5,5′-(sulfonylbis(ethane-2,1-diyl))bis(1,3,4-thiadiazole-5,2-diyl))dicarbamate]", "pIC50": "6.30 to 7.00"}
{"molecule": "CC(=O)NCCC(=O)Nc1nnc(CCCCc2nnc(NC(=O)CCNC(C)=O)s2)s1", "note": "[Compound 68]", "pIC50": "5.00 to 6.00"}
{"molecule": "O=C(Cc1ccccn1)Nc1nnc(CCCCCCc2nnc(NC(=O)Cc3ccccn3)s2)s1", "note": "[Compound 16, N,N′-(5,5′-(hexane-1,6-diyl)bis(1,3,4-thiadiazole-5,2-diyl))bis(2-(pyridin-2-yl)acetamide)]", "pIC50": "5.00 to 6.00"}
{"molecule": "O=C(CNC(=O)c1ccccc1)Nc1nnc(CCCCc2nnc(NC(=O)CNC(=O)c3ccccc3)s2)s1", "note": "[Compound 103, N,N′-(2,2′-(5,5′-(butane-1,4-diyl)bis(1,3,4-thiadiazole-5,2-diyl))bis(azanediyl)bis(2-oxoethane-2,1-diyl))dibenzamide]", "pIC50": "6.00 to 6.30"}
{"molecule": "CC(C)(C)CC(=O)Nc1nnc(CCCCc2nnc(NC(=O)CC(C)(C)C)s2)s1", "note": "[Compound 96]", "pIC50": "5.00 to 6.00"}
{"molecule": "COc1ccc2c(c1)C(CC(=O)Nc1nnc(CCCCc3nnc(NC(=O)CC4CC(=O)c5ccc(OC)cc54)s3)s1)CC2=O", "note": "(stereo not shown) [Compound 43, N,N′-(5,5′-(butane-1,4-diyl)bis(1,3,4-thiadiazole-5,2-diyl))bis(2-(6-methoxy-3-oxo-2,3-dihydro-1H-inden-1-yl)acetamide)]", "pIC50": "6.30 to 7.00"}
{"molecule": "O=C(CCc1nnc(NC(=O)Cc2ccccn2)s1)CCc1nnc(NC(=O)Cc2ccccn2)s1", "note": "[Compound 73]", "pIC50": "6.00 to 6.30"}
{"molecule": "COc1ccc2[nH]cc(CC(=O)Nc3nnc(CCCCc4nnc(NC(=O)Cc5c[nH]c6ccc(OC)cc56)s4)s3)c2c1", "note": "[Compound 61, N,N′-(5,5′-(butane-1,4-diyl)bis(1,3,4-thiadiazole-5,2-diyl))bis(2-(5-methoxy-1H-indol-3-yl)acetamide)]", "pIC50": "> 7.00"}
{"molecule": "O=C(Cc1cccnc1)Nc1nnc(CCCc2nnc(NC(=O)Cc3cccnc3)s2)s1", "note": "[Compound 26, N,N′-(5,5′-(propane-1,3-diyl)bis(1,3,4-thiadiazole-5,2-diyl))bis(2-(pyridin-3-yl)acetamide)]", "pIC50": "6.30 to 7.00"}
{"molecule": "O=C(NCc1ccccc1)c1nnc(CCCCc2nnc(C(=O)NCc3ccccc3)s2)s1", "note": "[Compound 100]", "pIC50": "6.30 to 7.00"}
{"molecule": "NCCOc1ccc(CC(=O)Nc2nnc(CCS(=O)(=O)CCc3nnc(NC(=O)Cc4ccccc4)s3)s2)cc1", "note": "[Compound 29, 2-(4-(2-aminoethoxy)phenyl)-N-(5-(2-((2-(5-(2-phenylacetamido)-1,3,4-thiadiazol-2-yl)ethyl)sulfonyl)ethyl)-1,3,4-thiadiazol-2-yl)acetamide]", "pIC50": "> 7.00"}
{"molecule": "O=C(Cc1cccnc1)Nc1nnc(CCS(=O)(=O)CCc2nnc(NC(=O)Cc3cccnc3)s2)s1", "note": "[Compound 14, N,N′-(5,5′-(sulfonylbis(ethane-2,1-diyl))bis(1,3,4-thiadiazole-5,2-diyl))bis(2-(pyridin-3-yl)acetamide)]", "pIC50": "> 7.00"}
{"molecule": "CN(C)c1ccc(CC(=O)Nc2nnc(CCCCc3nnc(NC(=O)Cc4ccc(N(C)C)cc4)s3)s2)cc1", "note": "[Compound 107, N,N′-(5,5′-(butane-1,4-diyl)bis(1,3,4-thiadiazole-5,2-diyl))bis(2-(4-(dimethylamino)phenyl)acetamide)]", "pIC50": "6.30 to 7.00"}
{"molecule": "COc1ccc(CC(=O)Nc2nnc(CCCCc3nnc(NC(C)=O)s3)s2)cc1OC", "note": "[Compound 118, N-(5-(4-(5-acetamido-1,3,4-thiadiazol-2-yl)butyl)-1,3,4-thiadiazol-2-yl)-2-(3,4-dimethoxyphenyl)acetamide]", "pIC50": "6.30 to 7.00"}
{"molecule": "O=C(CCc1cccnc1)Nc1nnc(CCCCc2nnc(NC(=O)CCc3cccnc3)s2)s1", "note": "[Compound 54, N,N′-(5,5′-(butane-1,4-diyl)bis(1,3,4-thiadiazole-5,2-diyl))bis(3-(pyridin-3-yl)propanamide)]", "pIC50": "6.00 to 6.30"}
{"molecule": "O=C(CCC(=O)c1ccccc1)Nc1nnc(CCCCc2nnc(NC(=O)CCC(=O)c3ccccc3)s2)s1", "note": "[Compound 112, N,N′-(5,5′-(butane-1,4-diyl)bis(1,3,4-thiadiazole-5,2-diyl))bis(4-oxo-4-phenylbutanamide)]", "pIC50": "6.30 to 7.00"}
{"molecule": "O=C(CC1CCCCC1)Nc1nnc(CCCCc2nnc(NC(=O)CC3CCCCC3)s2)s1", "note": "[Compound 121, N,N′-(5,5′-(butane-1,4-diyl)bis(1,3,4-thiadiazole-5,2-diyl))bis(2-cyclohexylacetamide)]", "pIC50": "6.30 to 7.00"}
{"molecule": "O=C(Cc1ccc(O)cc1)Nc1nnc(CCCCc2nnc(NC(=O)Cc3ccc(O)cc3)s2)s1", "note": "[Compound 38, N,N′-(5,5′-(butane-1,4-diyl)bis(1,3,4-thiadiazole-5,2-diyl))bis(2-(4-hydroxyphenyl)acetamide)]", "pIC50": "6.30 to 7.00"}
{"molecule": "COc1cc(CCC(=O)Nc2nnc(CCCCc3nnc(NC(=O)CCc4cc(OC)c(OC)c(OC)c4)s3)s2)cc(OC)c1OC", "note": "[Compound 101, N,N′-(5,5′-(butane-1,4-diyl)bis(1,3,4-thiadiazole-5,2-diyl))bis(3-(3,4,5-trimethoxyphenyl)propanamide)]", "pIC50": "6.00 to 6.30"}
{"molecule": "O=C(Cc1c[nH]c2ccncc12)Nc1nnc(CCCCc2nnc(NC(=O)Cc3c[nH]c4ccncc34)s2)s1", "note": "[Compound 124, N,N′-(5,5′-(butane-1,4-diyl)bis(1,3,4-thiadiazole-5,2-diyl))bis(2-(1H-pyrrolo[3,2-c]pyridin-3-yl)acetamide)]", "pIC50": "> 7.00"}
{"molecule": "O=C(Cc1c[nH]c2cnccc12)Nc1nnc(CCCCc2nnc(NC(=O)Cc3c[nH]c4cnccc34)s2)s1", "note": "[Compound 125, N,N′-(5,5′-(butane-1,4-diyl)bis(1,3,4-thiadiazole-5,2-diyl))bis(2-(1H-pyrrolo[2,3-c]pyridin-3-yl)acetamide)]", "pIC50": "> 7.00"}
{"molecule": "CCOC(=O)CCC(=O)Nc1nnc(CCCCc2nnc(NC(=O)CCC(=O)OCC)s2)s1", "note": "[Compound 66, Diethyl 4,4′-(5,5′-(butane-1,4-diyl)bis(1,3,4-thiadiazole-5,2-diyl))bis(azanediyl)bis(4-oxobutanoate)]", "pIC50": "6.30 to 7.00"}
{"molecule": "O=C(CCc1cccnc1)Nc1nnc(CCS(=O)(=O)CCc2nnc(NC(=O)CCc3cccnc3)s2)s1", "note": "[Compound 35]", "pIC50": "6.30 to 7.00"}
{"molecule": "O=C(Cc1cccnc1)Nc1nnc(CCCCCc2nnc(NC(=O)Cc3cccnc3)s2)s1", "note": "[Compound 10, N,N′-(5,5′-(pentane-1,5-diyl)bis(1,3,4-thiadiazole-5,2-diyl))bis(2-(pyridin-3-yl)acetamide)]", "pIC50": "6.30 to 7.00"}
{"molecule": "CN(C(=O)Nc1nnc(CCSCCc2nnc(NC(=O)N(C)c3ccccc3)s2)s1)c1ccccc1", "note": "[Compound 18, 1,1′-(5,5′-(thiobis(ethane-2,1-diyl))bis(1,3,4-thiadiazole-5,2-diyl))bis(3-methyl-3-phenylurea)]", "pIC50": "5.00 to 6.00"}
{"molecule": "CC(=O)Nc1nnc(CCCCc2nnc(NC(C)=O)s2)s1", "note": "[Compound 94, N,N′-(5,5′-(butane-1,4-diyl)bis(1,3,4-thiadiazole-5,2-diyl))diacetamide]", "pIC50": "6.00 to 6.30"}
{"molecule": "CC(=O)Nc1nnc(CCCCc2nnc(NC(=O)c3ccc4[nH]c(C)nc4c3)s2)s1", "note": "[Compound 128, N-(5-(4-(5-acetamido-1,3,4-thiadiazol-2-yl)butyl)-1,3,4-thiadiazol-2-yl)-2-methyl-1H-benzo[d]imidazole-5-carboxamide]", "pIC50": "> 7.00"}
{"molecule": "CC(=O)NCCCC(=O)Nc1nnc(CCCCc2nnc(NC(=O)CCCNC(C)=O)s2)s1", "note": "[Compound 70]", "pIC50": "5.00 to 6.00"}
{"molecule": "COc1ccc(CC(=O)Nc2nnc(CCCCc3nnc(NC(=O)Cc4ccc(OC)cc4OC)s3)s2)c(OC)c1", "note": "[Compound 119, N,N′-(5,5′-(butane-1,4-diyl)bis(1,3,4-thiadiazole-5,2-diyl))bis(2-(2,4-dimethoxyphenyl)acetamide)]", "pIC50": "> 7.00"}
{"molecule": "COc1ccc(CCCC(=O)Nc2nnc(CCCCc3nnc(NC(=O)CCCc4ccc(OC)cc4)s3)s2)cc1", "note": "[Compound 75, N,N′-(5,5′-(butane-1,4-diyl)bis(1,3,4-thiadiazole-5,2-diyl))bis(4-(4-methoxyphenyl)butanamide)]", "pIC50": "6.30 to 7.00"}
{"molecule": "O=C(CC1OC(=O)c2ccccc21)Nc1nnc(CCCCc2nnc(NC(=O)CC3OC(=O)c4ccccc43)s2)s1", "note": "(stereo not shown) [Compound 93, N,N′-(5,5′-(butane-1,4-diyl)bis(1,3,4-thiadiazole-5,2-diyl))bis(2-(3-oxo-1,3-dihydroisobenzofuran-1-yl)acetamide)]", "pIC50": "6.30 to 7.00"}
{"molecule": "Cc1ccc(C)c(OCC(=O)Nc2nnc(CCCCc3nnc(NC(=O)COc4cc(C)ccc4C)s3)s2)c1", "note": "[Compound 67]", "pIC50": "5.00 to 6.00"}
{"molecule": "O=C(Cc1ccc(Cl)cc1)Nc1nnc(CCCCc2nnc(NC(=O)Cc3ccc(Cl)cc3)s2)s1", "note": "[Compound 113, N,N′-(5,5′-(butane-1,4-diyl)bis(1,3,4-thiadiazole-5,2-diyl))bis(2-(4-chlorophenyl)acetamide)]", "pIC50": "6.30 to 7.00"}
